Measurements reported in patent publication US11006631B2, “Substituted pyrimidinyloxy pyridine derivatives as herbicides” (FMC Corporation, priority 2015, dated 2021).

Legend:
Format in all cases: in vivo
[1] = system: ryegrass, Italian (Italian ryegrass, Lolium multiflorum); assay: Test A postemergence, ryegrass, Italian; details: 0 to 100 scale
Description: (§1) Seeds of plant species selected from bamyardgrass (Echinochloa crus-galli), kochia (Kochia scoparia), ragweed (common ragweed, Ambrosia elatior), ryegrass, Italian (Italian ryegrass, Lolium multiflorum), foxtail, giant (giant foxtail, Setaria faberii), pigweed (Amaranthus retroflexus), crabgrass, large (large crabgrass, Digitaria sanguinalis), momingglory (Ipomoea spp.), velvetleaf (Abutilon theophrasti), wheat (Triticum aestivum), and corn (Zea mays) were planted into a blend of loam soil and sand and treated preemergence with a directed soil spray using test chemicals formulated in a non-phytotoxic solvent mixture which included a surfactant. At the same time, plants selected from these crop and weed species and also blackgrass (Alopecurus myosuroides), and galium (catchweed bedstraw, Galium aparine) were planted in pots containing the same blend of loam soil and sand and treated with postemergence applications of test chemicals formulated in the same manner. Plants ranged in height from 2 to 10 cm and were in the one- to two-leaf stage for the postemergence treatment. Treated plants and untreated controls were maintained in a greenhouse for approximately 10 days, after which time all treated plants were compared to untreated controls and visually evaluated for injury. Plant response ratings, summarized in Table A, are based on a 0 to 100 scale where 0 is no effect and 100 is complete control. A dash (-) response means no test result.

[2] = system: pigweed (Amaranthus retroflexus); assay: Test A preemergence, pigweed; details: 0 to 100 scale
Description: as §1

[3] = system: barnyardgrass (Echinochloa crus-galli); assay: Test A postemergence, barnyardgrass; details: 0 to 100 scale
Description: as §1

rice (Oryza sativa) = assay: Test B flooded paddy test, rice; details: Flood, 250 g ai/ha; scale of 0 to 100
Experimental: (§2) Plant species in the flooded paddy test selected from rice (Oryza sativa), sedge, umbrella (small-flower umbrella sedge, Cyperus difformis), ducksalad (Heteranthera limosa), and barnyardgrass (Echinochloa crus-galli) were grown to the 2-leaf stage for testing. At time of treatment, test pots were flooded to 3 cm above the soil surface, treated by application of test compounds directly to the paddy water, and then maintained at that water depth for the duration of the test. Treated plants and controls were maintained in a greenhouse for 13 to 15 days, after which time all species were compared to controls and visually evaluated. Plant response ratings, summarized in Table B, are based on a scale of 0 to 100 where 0 is no effect and 100 is complete control. A dash (-) response means no test result.

[4] = system: blackgrass (Alopecurus myosuroides); assay: Test A postemergence, blackgrass; details: 0 to 100 scale
Description: as §1

[5] = system: ragweed (common ragweed, Ambrosia elatior); assay: Test A preemergence, ragweed; details: 0 to 100 scale
Description: as §1

[6] = system: ragweed (common ragweed, Ambrosia elatior); assay: Test A postemergence, ragweed; details: 0 to 100 scale
Description: as §1

[7] = system: galium (catchweed bedstraw, Galium aparine); assay: Test A postemergence, galium; details: 0 to 100 scale
Description: as §1

[8] = system: sedge, umbrella (small-flower umbrella sedge, Cyperus difformis); assay: Test B flooded paddy test, sedge, umbrella; details: Flood, 250 g ai/ha; scale of 0 to 100
Experimental: as §2

[9] = system: ryegrass, Italian (Italian ryegrass, Lolium multiflorum); assay: Test A preemergence, ryegrass, Italian; details: 0 to 100 scale
Description: as §1

[10] = system: barnyardgrass (Echinochloa crus-galli); assay: Test B flooded paddy test, barnyardgrass; details: Flood, 250 g ai/ha; scale of 0 to 100
Experimental: as §2

[11] = system: wheat (Triticum aestivum); assay: Test A postemergence, wheat; details: 0 to 100 scale
Description: as §1

[12] = system: foxtail, giant (giant foxtail, Setaria faberii); assay: Test A postemergence, foxtail, giant; details: 0 to 100 scale
Description: as §1

kochia (Kochia scoparia) [13] = assay: Test A postemergence, kochia; details: 0 to 100 scale
Description: as §1

kochia (Kochia scoparia) [14] = assay: Test A preemergence, kochia; details: 0 to 100 scale
Description: as §1

[15] = system: pigweed (Amaranthus retroflexus); assay: Test A postemergence, pigweed; details: 0 to 100 scale
Description: as §1

[16] = system: barnyardgrass (Echinochloa crus-galli); assay: Test A preemergence, barnyardgrass; details: 0 to 100 scale
Description: as §1

[17] = system: foxtail, giant (giant foxtail, Setaria faberii); assay: Test A preemergence, foxtail, giant; details: 0 to 100 scale
Description: as §1

[18] = system: ducksalad (Heteranthera limosa); assay: Test B flooded paddy test, ducksalad; details: Flood, 250 g ai/ha; scale of 0 to 100
Experimental: as §2

corn (Zea mays) = assay: Test A postemergence, corn; details: 0 to 100 scale
Description: as §1

Row | SMILES | Plant response rating, Ryegrass, Italian ([1]; 125 g ai/ha) | Plant response rating, Pigweed ([2]; 125 g ai/ha) | Plant response rating, Barnyardgrass ([3]; 125 g ai/ha) | Plant response rating, Rice (rice (Oryza sativa)) | Plant response rating, Blackgrass ([4]; 125 g ai/ha) | Plant response rating, Ragweed ([5]; 125 g ai/ha) | Plant response rating, Ragweed ([6]; 125 g ai/ha) | Plant response rating, Galium ([7]; 125 g ai/ha) | Plant response rating, Sedge, Umbrella [8] | Plant response rating, Ryegrass, Italian ([9]; 125 g ai/ha) | Plant response rating, Barnyardgrass [10] | Plant response rating, Wheat ([11]; 125 g ai/ha) | Plant response rating, Foxtail, Giant ([12]; 125 g ai/ha) | Plant response rating, Kochia (kochia (Kochia scoparia) [13]; 125 g ai/ha) | Plant response rating, Kochia (kochia (Kochia scoparia) [14]; 125 g ai/ha) | Plant response rating, Pigweed ([15]; 125 g ai/ha) | Plant response rating, Barnyardgrass ([16]; 125 g ai/ha) | Plant response rating, Foxtail, Giant ([17]; 125 g ai/ha) | Plant response rating, Ducksalad [18] | Plant response rating, Corn (corn (Zea mays); 125 g ai/ha) | also measured
1 | Cc1cnc(-n2ccc(C(F)(F)F)n2)c(Oc2ncc(Cl)cn2)c1 [Compound 13] | 0 | 0 | 0 | 0 | 0 | 0 | 0 | 0 | 0 | 0 | 0 | 0 | 0 | 0 | 0 | 0 | 0 | 0 | 0 | 0 | Plant response rating, Ryegrass, Italian ([1]; 31 g ai/ha): 0; Plant response rating, Pigweed ([2]; 31 g ai/ha): 0; Plant response rating, Barnyardgrass ([3]; 31 g ai/ha): 0; Plant response rating, Blackgrass ([4]; 31 g ai/ha): 0; Plant response rating, Ragweed ([5]; 31 g ai/ha): 0; Plant response rating, Ragweed ([6]; 31 g ai/ha): 0; Plant response rating, Galium ([7]; 31 g ai/ha): 0; Plant response rating, Ryegrass, Italian ([9]; 31 g ai/ha): 0; Plant response rating, Wheat ([11]; 31 g ai/ha): 0; Plant response rating, Foxtail, Giant ([12]; 31 g ai/ha): 0; Plant response rating, Kochia (kochia (Kochia scoparia) [13]; 31 g ai/ha): 0; Plant response rating, Kochia (kochia (Kochia scoparia) [14]; 31 g ai/ha): 0; Plant response rating, Pigweed ([15]; 31 g ai/ha): 0; Plant response rating, Barnyardgrass ([16]; 31 g ai/ha): 0; Plant response rating, Foxtail, Giant ([17]; 31 g ai/ha): 0; Plant response rating, Corn (corn (Zea mays); 31 g ai/ha): 0
2 | FC(F)(F)c1cc(-c2ncccc2Oc2ncc(Cl)cn2)ccn1 [Compound 14] | 30 | 100 | 40 | 0 | 10 | 0 | 10 | 50 | 50 | 10 | 0 | 0 | 60 | 80 | 100 | 100 | 40 | 90 | 40 | 20 | Plant response rating, Ryegrass, Italian ([1]; 500 g ai/ha): 40; Plant response rating, Pigweed ([2]; 500 g ai/ha): 100; Plant response rating, Barnyardgrass ([3]; 500 g ai/ha): 60; Plant response rating, Blackgrass ([4]; 500 g ai/ha): 90; Plant response rating, Ragweed ([5]; 500 g ai/ha): 20; Plant response rating, Ragweed ([6]; 500 g ai/ha): 30; Plant response rating, Galium ([7]; 500 g ai/ha): 90; Plant response rating, Ryegrass, Italian ([9]; 500 g ai/ha): 20; Plant response rating, Wheat ([11]; 500 g ai/ha): 10; Plant response rating, Foxtail, Giant ([12]; 500 g ai/ha): 90; Plant response rating, Kochia (kochia (Kochia scoparia) [13]; 500 g ai/ha): 100; Plant response rating, Kochia (kochia (Kochia scoparia) [14]; 500 g ai/ha): 100; Plant response rating, Pigweed ([15]; 500 g ai/ha): 100; Plant response rating, Barnyardgrass ([16]; 500 g ai/ha): 100; Plant response rating, Foxtail, Giant ([17]; 500 g ai/ha): 100; Plant response rating, Corn (corn (Zea mays); 500 g ai/ha): 40
